Broadly, the inhibition is how much of the control response was suppressed.

The values that follow come from patent US6001849A, “Furopyridine, thienopyridine pyrrolopyridine useful in controlling chemical synaptic transmission” (Abbott Laboratories, priority 1997, dated 1999).

In assay [1] the test system is neuronal nicotinic acetylcholine receptors in IMR-32 cells. Kind of assay: 86Rb+ efflux assay in IMR-32 neuroblastoma cells. The class given is cell-based, human. As to conditions: for IMR-32 % max: maximal response, percent relative to 100 μM (S)-nicotine; for IMR-32 % Inhibition @ (30 μM) / IMR-32 % Inhibition @ 10 μM: inhibition of efflux elicited by 100 μM (S)-nicotine. The method, then: (§1) B. Protocols for the Determination of Functional Effects of Nicotinic Acetylcholine Receptor Ligands on Synaptic Transmission
Experimental cells were seeded at a density of 500,000 cells/mL into a 24-well tissue culture dish. Plated cells were allowed to proliferate for at least 48 hours before loading with 2 μCi/mL of ^86 Rb^+ (35 Ci/mmol) overnigh at 37° C.

Assay [2] deals with T1, α4 and β2 nicotinic acetylcholine subunits (K177 cells) (Homo sapiens, UniProt P17787+P43681).
T1 construct: expressed in transfected cells
T1 sequence (P43681 29-627 limits assumed): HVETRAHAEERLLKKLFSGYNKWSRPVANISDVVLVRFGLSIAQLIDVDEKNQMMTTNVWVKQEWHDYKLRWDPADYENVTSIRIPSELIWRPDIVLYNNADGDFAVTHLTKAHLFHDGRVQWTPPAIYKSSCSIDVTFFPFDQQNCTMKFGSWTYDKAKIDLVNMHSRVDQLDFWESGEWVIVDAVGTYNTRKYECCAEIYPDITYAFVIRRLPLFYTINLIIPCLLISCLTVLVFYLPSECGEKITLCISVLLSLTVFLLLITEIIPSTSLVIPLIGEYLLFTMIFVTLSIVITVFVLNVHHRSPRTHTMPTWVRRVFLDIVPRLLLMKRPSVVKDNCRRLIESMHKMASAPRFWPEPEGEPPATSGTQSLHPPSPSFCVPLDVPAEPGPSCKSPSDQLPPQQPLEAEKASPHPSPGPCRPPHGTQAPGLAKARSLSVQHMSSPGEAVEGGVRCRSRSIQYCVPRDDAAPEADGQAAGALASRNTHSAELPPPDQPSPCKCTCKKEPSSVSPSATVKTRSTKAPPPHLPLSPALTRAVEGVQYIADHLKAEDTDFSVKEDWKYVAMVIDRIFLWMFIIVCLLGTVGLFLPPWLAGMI
T1 sequence (P17787 26-502): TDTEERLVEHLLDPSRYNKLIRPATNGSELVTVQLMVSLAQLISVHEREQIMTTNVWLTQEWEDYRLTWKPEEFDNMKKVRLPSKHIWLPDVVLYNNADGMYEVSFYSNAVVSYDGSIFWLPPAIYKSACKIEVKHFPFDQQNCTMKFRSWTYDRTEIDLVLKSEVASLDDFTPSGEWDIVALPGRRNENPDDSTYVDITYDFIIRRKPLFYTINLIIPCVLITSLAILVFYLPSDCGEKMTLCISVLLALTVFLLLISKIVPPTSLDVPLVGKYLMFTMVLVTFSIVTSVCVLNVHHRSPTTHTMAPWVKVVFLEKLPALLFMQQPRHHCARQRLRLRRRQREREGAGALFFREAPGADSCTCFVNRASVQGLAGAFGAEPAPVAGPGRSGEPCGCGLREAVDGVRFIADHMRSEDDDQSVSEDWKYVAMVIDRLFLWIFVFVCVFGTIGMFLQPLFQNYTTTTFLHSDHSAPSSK
The assay is described as follows: 86Rb+ efflux assay in K177 cells (HEK 293 stably transfected with α4 and β2 nicotinic acetylcholine subunits). The format is cell-based. The method, then:
as §1
Cells of the IMR-32 human neuroblastoma clonal cell line (ATCC, Rockville, Md.) were maintained in a log phase of growth according to established procedures (Lukas, R. J., J. Pharmacol. Exp. Ther., 265: 294-302, 1993). Experimental cells were seeded at a density of 500,000 cells/mL into a 24-well tissue culture dish. Plated cells were allowed to proliferate for at least 48 hours before loading with 2 μCi/mL of ^86 Rb^+ (35 Ci/mmol) overnigh at 37° C. The ^86 Rb^+ efflux assays were performed according to previously published protocols (Lukas, 1993) except serum-free Dulbecco's Modified Eagle's Medium was used during the ^86 Rb^+ loading, rinsing, and agonist-induced efflux steps.
Cells of the K177 cell line, resulting from stable transfection of the human embryonic kidney (HEK) 293 cell line with the cDNA of the α4 and β2 nicotinic acetylcholine subunits (Gopalakrishnan, et al, J. Pharmacol. Expt. Ther. 1996, 276, 289-297), were maintained in a log phase of growth according to established procedures (Gopalakrishnan, et al., loc. cit.). The cells were plated onto poly-lysine coated 24-well Costar plates (Cambridge, Mass.) at a density of 250,000 cells/well. When confluent, the cells were loaded with ^86 Rb^+ and agonist-induced efflux was assessed as reported above for IMR-32 cells.
Maximal responses (reported as percent relative to the response elicited by 100 μM (S)-nicotine) are shown for selected compounds of the invention. The inhibition data (given for other selected compounds) reflect inhibition of the efflux elicited by 100 μM (S)-nicotine at the indicated concentration. […] This finding is in agreement with the results of others who have linked dopamine release, which is dependent upon the ion flux in synaptic transmission, to binding at nicotinic receptors (cf., for example, Lippiello and Caldwell, U.S. Pat. No. 5,242,935, issued Sept. 7, 1993; Caldwell and Lippielo, U.S. Pat. No. 5,248,690, issued Sept. 28, 1993; and Wonnacott et al., Prog. Brain Res; 79: 157-163 (1989)).

Assay [3] addresses neuronal nicotinic acetylcholine receptors. Kind of assay: [3H]-cytisine ligand-receptor binding assay (crude synaptic membranes from whole rat brain). Conditions: for binding to the nicotinic acetylcholine receptor (in words): preferred compounds. The method, then:
For the purpose of identifying compounds as nicotinic acetylcholinergic agents which are capable of interacting with neuronal nicotinic acetylcholine receptors in the brain, a ligand-receptor binding assay was carried out as the initial screen. Compounds of the present invention were effective at interacting with neuronal nicotinic acetylcholine receptors as assayed for their ability to displace radioligand from neuronal nicotinic acetylcholine receptors labeled with [^3 H]-cytisine ([^3 H]-CYT).
A. Protocol For Determination of Nicotinic Acetylcholine Receptor Binding Potencies of Ligands
Binding of [^3 H]-CYT to nicotinic acetylcholine receptors was accomplished using crude synaptic membrane preparations from whole rat brain (Pabreza et al., Molecular Pharmacol., 1990, 39:9). Washed membranes were stored at -80° C. prior to use. Frozen aliquots were slowly thawed and resuspended in 20 volumes of buffer (containing: 120 mM NaCl, 5 mM KCl, 2 mM MgCl2, 2 mM CaCl2 and 50 mM Tris-Cl, pH 7.4 @4° C.). After centrifuging at 20,000×g for 15 minutes, the pellets were resuspended in 30 volumes of buffer. Homogenate (containing 125-150 μg protein) was added to triplicate tubes containing concentrations of test compound and [^3 H]-CYT (1.25 nM) in a final volume of 500 μL. Samples were incubated for 60 minutes at 4° C., then rapidly filtered through Whatman GF/B filters presoaked in 0.5% polyethylimine using 3×4 mL of ice-cold buffer. The filters were counted in 4 mL of Ecolume® (ICN). Nonspecific binding was determined in the presence of 10 μM (-)-nicotine and values were expressed as a percentage of total binding.

Setting [4] is: K177, Table 1, maximal response, percent relative to 100 μM (S)-nicotine, read-out: K177 % max.
Setting [5] is: Table 1, [3H]-cytisine 1.25 nM, 4° C., 60 min, Ki by Cheng and Prusoff, read-out: [^3 H]-Cyt Binding.
Setting [6] is: K177, Table 1, inhibition of efflux elicited by 100 μM (S)-nicotine, 10 μM, read-out: K177 % Inhibition @ 10 μM.
Setting [7] is: Table 2, [3H]-cytisine binding, read-out: Binding.

Where a name gives a salt, the structure may show the parent alone. Read-outs that look alike come from different tables or passages of the source.

For `c1cnc2cc([C@H]3C[C@@H]4CC[C@H]3N4)oc2c1` (relative stereo) [Example 52, (±)-2-(7-aza-2-exo-bicyclo[2.2.1]heptyl)furo[3,2-b]pyridine dihydrochloride], the IMR-32 % max in assay [1] (Table 1) was 69%. In addition, the Emax in assay [2] (setting [4]) amounted to 36%. For the same compound, the Ki in assay [3] (setting [5]) was 0.86 nM.

As to `CN1CCC[C@H]1c1cc2ncccc2o1.Cl.Cl` [Example 1, 2-(1-methyl-2-(S)-pyrrolidinyl)furo[3,2-b]pyridine dihydrochloride], in assay [1] (Table 1), the “IMR-32 % Inhibition @ (30 μM)” value came out at 16% and the IMR-32 % max amounted to 7%. In assay [2] (setting [4]), the Emax was found to be 79%. Besides, the Ki in assay [3] (setting [5]) was determined as 2.7 nM.

With `Cl.Cl.c1cnc2cc([C@@H]3CCCN3)oc2c1` [Example 2, 2-(2-(S)-pyrrolidinyl)furo[3,2-b]pyridine dihydrochloride], the “IMR-32 % Inhibition @ 10 μM” value in assay [1] (Table 1) stood at 24%. Besides, in assay [2] (setting [4]), the Emax stood at 0%. Besides, the Ki in assay [3] (setting [5]) worked out at 76 nM.

Turning to `Cl.Cl.c1cnc2cc([C@H]3CCCN3)oc2c1` [Example 3, 2-(2-(R)-pyrrolidinyl)furo[3,2-b]pyridine dihydrochloride], the IMR-32 % max in assay [1] (Table 1) came to 58%. Moreover, the Emax in assay [2] (setting [4]) worked out at 34%. In addition, in assay [3] (setting [5]), the Ki is 4.1 nM.

Regarding `CN1CCC[C@@H]1c1cc2ncccc2o1` [Example 4, 2-(1-methyl-2-(R)-pyrrolidinyl)furo[3,2-b]pyridine dihydrochloride], in assay [2] (setting [4]), the Emax came out at 63%. In assay [3] (setting [5]), the Ki turned out to be 17.5 nM.

Regarding `Cc1ccc2oc([C@@H]3CCCN3C)cc2n1.Cl.Cl` [Example 6, 2-(1-methyl-2-(S)-pyrrolidinyl)-5-methylfuro[3,2-b]pyridine dihydrochloride], in assay [1] (Table 1), the “IMR-32 % Inhibition @ 10 μM” value came out at 4%. For the same compound, the Emax in assay [2] (setting [4]) turned out to be 68%. Moreover, the Ki in assay [3] (setting [5]) stood at 4.7 nM.

Take `CN1CCC[C@H]1c1cc2ncc(Cl)cc2o1` [Example 8, 6-chloro-2-(1-methyl-2-(S)-pyrrolidinyl)-furo[3,2-b]pyridinedihydrochloride]: in assay [1] (Table 1), the “IMR-32 % Inhibition @ 10 μM” value is 9% and the IMR-32 % max is 0%. For the same compound, the inhibition at 10 µM in assay [2] (K177, read-out: K177 % Inhibition @ 10 μM) was determined as 45%. Also, the Emax in assay [2] (K177, read-out: K177 % max) is 3%. Moreover, in assay [3] (setting [5]), the Ki stood at 27 nM.

The compound `Cl.Cl.c1cc2cc([C@@H]3CCCN3)oc2cn1` [Example 9, 2-(2-(S)-pyrrolidinyl)furo[2,3-c]pyridine dihydrochloride] gave an IMR-32 % max in assay [1] (Table 1) of 83%. For the same compound, the Ki in assay [3] (setting [5]) stood at 250 nM.

As to `CN1CCC[C@H]1c1cc2nc(Cl)ccc2o1` [Example 12, 5-chloro-2-(1-methyl-2-(S)-pyrrolidinyl)-furo[3,2-b]pyridinehydrochloride], in assay [1] (Table 1), the IMR-32 % max was 11%. Also, in assay [2] (setting [4]), the Emax came to 41%. For the same compound, the Ki in assay [3] (setting [5]) stood at 4.1 nM.

As to `Cl.c1cnc2cc(C34CCCN3CCC4)oc2c1` [Example 15, 2-(Hexahydro-1H-7a-pyrrolizinyl)furo[3,2-b]pyridine hydrochloride], the IMR-32 % max in assay [1] (Table 1) was determined as 43%. Besides, the Emax in assay [2] (setting [4]) was 9%. Besides, in assay [3] (setting [5]), the Ki was found to be 0.45 nM. Besides, the “binding to the nicotinic acetylcholine receptor (in words)” value in assay [3] is on record as “most potent binders”.

For the compound `Cc1ccc2oc(C34CCCN3CCC4)cc2n1` [Example 16, 2-(Hexahydro-1H-7a-pyrrolizinyl)-5-methylfuro[3,2-b]pyridinedihydrochloride], in assay [1] (Table 1), the “IMR-32 % Inhibition @ 10 μM” value worked out at 10% and the IMR-32 % max is 0%. The Emax in assay [2] (setting [4]) is 109%. Besides, the Ki in assay [3] (setting [5]) worked out at 5.8 nM.

For the compound `c1cnc2cc([C@H]3CC[C@H]4CCCN43)oc2c1` [Example 18, endo-2-(Hexahydro-1H-3-(R)-pyrrolizinyl)furo[3,2-b]pyridine dihydrochloride], the “IMR-32 % Inhibition @ (30 μM)” value in assay [1] (Table 1) was 55%. Also, the Ki in assay [3] (setting [5]) was 38 nM.

`c1cnc2cc([C@@H]3CC[C@@H]4CCCN43)oc2c1` [Example 21, endo-2-(Hexahydro-1H-3-(S)-pyrrolizinyl)furo[3,2-b]pyridine dihydrochloride]: in assay [1] (Table 1), the “IMR-32 % Inhibition @ (30 μM)” value stood at 50% and the IMR-32 % max worked out at 0%. Further, the Ki in assay [3] (setting [5]) worked out at 3300 nM.

As for `c1cnc2cc(C34CCCN3CCC4)sc2c1` [Example 24, 2-(Hexahydro-1H-7a-pyrrolizinyl)thieno[3,2-b]pyridine hydrochloride], the inhibition at 10 µM in assay [2] (setting [6]) came to 60%. For the same compound, in assay [2] (setting [4]), the Emax came to 14%. The Ki in assay [3] (setting [5]) came out at 2 nM.

In the case of `Brc1ccc2oc([C@@H]3CCCN3)cc2n1.Cl` [Example 28, 5-bromo-2-(2-(S)-parrolidinvy)-furo[3,2-b]pyridine hydrochloride], the K177 % max in assay [2] (Table 1, maximal response, percent relative to 100 μM (S)-nicotine) was determined as 20%. Moreover, in assay [3] (setting [5]), the Ki came to 4.8 nM.

For the compound `Clc1cnc2cc([C@H]3CCCN3)oc2c1` [Example 31, 6-chloro-2-(2-(R)-pyrrolidinyl)-furo[3,2-b]pyridine hydrochloride], the inhibition at 10 µM in assay [2] (setting [6]) was found to be 41%. Besides, the Emax in assay [2] (setting [4]) was found to be 13%. Besides, the Ki in assay [3] (setting [5]) came to 9.8 nM.

Consider `Brc1ccc2oc([C@H]3CCCN3)cc2n1` [Example 33, 5-bromo-2-(2-(R)-pyrrolidinyl)-furo[3,2-b]pyridine hydrochloride], for which, in assay [1] (Table 1), the “IMR-32 % Inhibition @ 10 μM” value is 8% and the IMR-32 % max is listed as 0%. For the same compound, the Emax in assay [2] (setting [4]) worked out at 0%.

Consider `Cl.Cl.c1cc2cc([C@H]3CCCN3)oc2cn1` [Example 34, 2-(2-(R)-pyrrolidinyl)furo[2,3-c]pyridine dihydrochloride], for which, in assay [1] (Table 1), the “IMR-32 % Inhibition @ 10 μM” value was 2.8%. Further, the Ki in assay [3] (setting [5]) is 1710 nM.

As to `Clc1ccc2oc([C@H]3CCCN3)cc2n1` [Example 35, 5-chloro-2-(2-(R)-pyrrolidinyl)-furo[3,2-b]pyridine hydrochloride], the Emax in assay [2] (setting [4]) turned out to be 61%. For the same compound, in assay [3] (setting [5]), the Ki worked out at 1.1 nM.

`Cl.Clc1nc2cc([C@H]3CCCN3)oc2cc1Br` [Example 49, 6-bromo-5-chloro-2-(2-(R)-pyrrolidinyl)furo[3,2-b]pyridine hydrochloride]: in assay [1] (Table 1), the “IMR-32 % Inhibition @ 10 μM” value worked out at 10% and the IMR-32 % max is listed as 1%. Moreover, the Ki in assay [3] (setting [5]) amounted to 2.6 nM.

With `Clc1nc2cc([C@H]3CCCN3)oc2cc1-c1ccccc1` [Example 55, 2-(2-(R)-pyrrolidinyl)-5-chloro-6-phenyl furo[3,2-b]pyridinehydrochloride], the IMR-32 % max in assay [1] (Table 2) was found to be 32%. Also, the Ki in assay [3] (setting [7]) stood at 0.16 nM. Also, in assay [3] (Tables 1 and 2), the “in vitro binding (in words)” value was “potent in vitro binding”. Besides, the “binding to the nicotinic acetylcholine receptor (in words)” value in assay [3] was “most potent binders”.

Turning to `Cl.Nc1cccc(-c2cc3oc([C@H]4CCCN4)cc3nc2Cl)c1` [Example 57, 6-(3-aminophenyl)-5-chloro-2-(2-(R)-pyrrolidinyl)furo[3,2-b]pyridine hydrochloride], the IMR-32 % max in assay [1] (Table 2) amounted to 22%. For the same compound, the Ki in assay [3] (setting [7]) turned out to be 0.83 nM.

Regarding `CN1CCC[C@H]1c1cc2cccnc2o1` [Example 134, 2-(1-methyl-2-(S)-pyrrolidinyl)furo[2,3-b]pyidine hydrochloride], the Ki in assay [3] (setting [7]) amounted to 6.9 nM.
